SMILES strings stand for the structures. Counter-ions that a name gives are not always drawn. Bounds are passed on as bounds.

A word on the melting point: it is the temperature, or range, at which the solid turns liquid. As a reminder, the IC50 is the concentration at which inhibition is half-maximal.

One data set has as its system VCAM-1. Kind of data set: In Vitro VCAM-1 Assay (TNF-α stimulated endothelial cells, cell-surface ELISA). It is filed as cell-based. As to conditions: primary human aortic (HAEC) or pulmonary (HPAEC) endothelial cells, TNF-α 1 ng/ml, approximately 16 hours, ELISA OD 450 nm. The protocol:
Cell Culture and compound dosing: Cultured primary human aortic (HAEC) or pulmonary (HPAEC) endothelial cells were obtained from Clonetics, Inc., and were used below passage 9. Cells were seeded in 96 well plates such that they would reach 90–95% confluency by the following day. On the following day the cells were stimulated with TNF-α (1 ng/ml) in the presence or absence of compounds dissolved in DMSO such that the final concentration of DMSO is 0.25% or less. To establish a dose curve for each compound, four concentrations in 2- to 5-fold increments were used. Cells were exposed to TNF-α and compounds for approximately 16 hours. The next day the cells were examined under microscope to score for visual signs of toxicity or cell stress.
Following 16 hr exposure to TNF-α and compound the media was discarded and the cells were washed once with Hanks Balanced Salt Solution (HBSS)/Phosphate buffered saline (PBS) (1:1). Primary antibodies against VCAM-1 (0.25 μg/ml in HBSS/PBS+5% FBS) were added and incubated for 30–60 minutes at 37° C. Cells were washed with HBSS/PBS three times, and secondary antibody Horse Radish Peroxidase (HRP)-conjugated goat anti-mouse IgG (1:500 in HBSS/PBS+5% FBS) were added and incubated for 30 minutes at 37° C. Cells were washed with HBSS/PBS four time and TMB substrate were added and incubated at room temperature in the dark until there was adequate development of blue color. The length of time of incubation was typically 5–15 minutes. 2N sulfuric acid was added to stop the color development and the data was collected by reading the absorbance on a BioRad ELISA plate reader at OD 450 nm. The results are expressed as IC50 values (the concentration (micromolar) of compound required to inhibit 50% of the maximal response of the control sample stimulated by TNF-α only).
For orientation: An ELISA detects its analyte on a solid surface through an enzyme-linked reagent.

Where [1] appears, read: Homo sapiens, Endothelial cell, 16 h.

In the case of `COc1cc(OC)c(-c2cccs2)cc1/C=C/C(=O)c1ccc(S(=O)(=O)Nc2cc(C)on2)cc1` (as salt: sodium) [Example 2, 4-[3E-(2,4-Dimethoxy-5-thien-2-ylphenyl)acryloyl]-N-(5-methylisoxazol-3-yl)benzenesulfonamide sodium salt], the melting point is over 260 °C.

`COc1cc(OC)c(-c2cc3ccccc3n2C)cc1/C=C/C(=O)c1ccc(S(=O)(=O)Nc2cc(C)on2)cc1` (as salt: sodium) [Example 16, 4-{3E-[2,4-Dimethoxy-5-(1-methyl-1H-indol-2-yl)phenyl]acryloyl}-N-(5-methylisoxazol-3-yl)benzenesulfonamide sodium salt] had a melting point of 202 to 206 °C.

Regarding `COc1cc(OC)c(-c2cccs2)cc1/C=C/C(=O)c1ccc(S(=O)(=O)NCC(F)(F)F)cc1` (as salt: sodium) [Example 25, 4-[3E-(2,4-Dimethoxy-5-thien-2-ylphenyl)acryloyl]-N-(2,2,2-trifluoroethyl)benzenesulfonamide sodium salt], the melting point lay in the range of 160 to 170 °C.

`COc1cc(OC)c(-c2cccs2)cc1/C=C/C(=O)c1ccc(S(=O)(=O)Nc2cc(C)on2)cc1` [Example 1, 4-[3E-(2,4-Dimethoxy-5-thien-2-yl-phenyl)acryloyl]-N-(5-methylisoxazol-3-yl)benzenesulfonamide] gave a melting point of 202 to 203 °C. Further, in the data set with VCAM-1 (setting [1]), the IC50 is under 5 µM.

For `COc1cc(OC)c(-c2cccs2)cc1/C=C/C(=O)c1ccc(S(=O)(=O)Nc2ncccn2)cc1` [Example 3, 4-[3E-(2,4-Dimethoxy-5-thien-2-ylphenyl)acryloyl]-N-pyrimidin-2-ylbenzenesulfonamide], the melting point is 215 °C (dec.). Besides, the IC50 with VCAM-1 (setting [1]) was under 5 µM.

Regarding `COc1cc(OC)c(-c2cccs2)cc1/C=C/C(=O)c1ccc(S(=O)(=O)Nc2nnn[nH]2)cc1` [Example 4, 4-[3E-(2,4-Dimethoxy-5-thien-2-ylphenyl)acryloyl]-N-(1-H-tetrazol-5-yl)benzenesulfonamide], the IC50 in the data set with VCAM-1 was over 10 µM.

As for `COc1cc(OC)c(-c2cccs2)cc1/C=C/C(=O)c1ccc(S(=O)(=O)Nc2ccccn2)cc1` [Example 5, 4-[3E-(2,4-Dimethoxy-5-thien-2-ylphenyl)acryloyl]-N-pyridin-2-ylbenzenesulfonamide], the melting point lay in the range of 141 to 143 °C. Besides, in the data set on VCAM-1 (setting [1]), the IC50 was under 5 µM.

On to `COc1cc(OC)c(-c2cccs2)cc1/C=C/C(=O)c1ccc(S(=O)(=O)Nc2cc[nH]n2)cc1` [Example 6, 4-[3E-(2,4-Dimethoxy-5-thien-2-ylphenyl)acryloyl]-N-(1H-pyrazol-3-yl)benzenesulfonamide], for which the melting point was in the range of 142 to 145 °C. This compound also returned a concentration for half-maximal inhibition (IC50) in the data set with VCAM-1 (setting [1]) of under 5 µM.

Take `COc1cc(OC)c(-c2cccs2)cc1/C=C/C(=O)c1ccc(S(=O)(=O)Nc2ccon2)cc1` [Example 7, 4-[3E-(2,4-Dimethoxy-5-thien-2-ylphenyl)acryloyl]-N-isoxazol-3-ylbenzenesulfonamide]: the melting point lay in the range of 198 to 199 °C. In the data set with VCAM-1 (setting [1]), this compound gave an IC50 of under 5 µM.

For the compound `COc1cc(OC)c(-c2cccs2)cc1/C=C/C(=O)c1ccc(S(=O)(=O)Nc2nccs2)cc1` [Example 8, 4-[3E-(2,4-Dimethoxy-5-thien-2-ylphenyl)acryloyl]-N-thiazol-2-ylbenzenesulfonamide], the melting point lay in the range of 220 to 221 °C. Further, the half-inhibitory concentration (IC50) with VCAM-1 (setting [1]) is under 5 µM.

In the data set with VCAM-1, `COc1cc(OC)c(-c2cccs2)cc1/C=C/C(=O)c1ccc(S(=O)(=O)Nc2cc(C)no2)cc1` [Example 9] came in with an IC50 of under 10 µM.

Consider `COc1cc(OC)c(-c2cccs2)cc1/C=C/C(=O)c1ccc(S(=O)(=O)Nc2ccc(Cl)cn2)cc1` [Example 10, N-(5—Chloropyridin-2-yl)-4-[3E-(2,4-dimethoxy-5-thien-2-ylphenyl)acryloyl]benzenesulfonamide], for which the melting point was in the range of 228 to 229 °C. Moreover, the IC50 in the data set on VCAM-1 (setting [1]) was under 10 µM.

As for `COc1cc(OC)c(-c2cc3ccccc3n2C)cc1/C=C/C(=O)c1ccc(S(=O)(=O)Nc2cc(C)on2)cc1` [Example 16, 4-{3E-[2,4-Dimethoxy-5-(1-methyl-1H-indol-2-yl)phenyl]acryloyl}-N-(5-methylisoxazol-3-yl)benzenesulfonamide sodium salt], the half-inhibitory concentration (IC50) in the data set on VCAM-1 (setting [1]) is under 5 µM.

In the data set with VCAM-1, `COc1cc(OC)c(-c2cc3ccccc3n2C)cc1/C=C/C(=O)c1ccc(S(=O)(=O)NCc2cccnc2)cc1` [Example 17, 4-{3E-[2,4-Dimethoxy-5-(1-methyl-1H-indol-2-yl)phenyl]acryloyl}-N-pyridin-3-ylmethy-benzenesulfonamide] gave a concentration for half-maximal inhibition (IC50) of under 10 µM.

With `COc1cc(OC)c(-c2cccs2)cc1/C=C/C(=O)c1ccc(S(=O)(=O)N2CCN(C)CC2)cc1` [Example 21, 3E-(2,4-Dimethoxy-5-thien-2-ylphenyl)-1-[4-(4-methylpiperazine-1-sulfonyl)phenyl]propenone], the IC50 in the data set on VCAM-1 was under 10 µM.

Compound `COc1cc(OC)c(-c2cccs2)cc1/C=C/C(=O)c1ccc(S(=O)(=O)N2CCCCC2C(=O)O)cc1` (stereo not drawn) [Example 28, 1-{4-[3E-(2,4-Dimethoxy-5-thien-2-ylphenyl)acryloyl]benzenesulfonyl}piperidine-2-carboxylic acid] displayed an IC50 in the data set on VCAM-1 (setting [1]) of under 10 µM.

As to `COc1cc(OC)c(-c2cc3ccccc3[nH]2)cc1/C=C/C(=O)c1ccc(S(=O)(=O)[N-]C(=O)C(C)C)cc1.[Na+]` [Example 36, 4-{3E-[5-(1H-Indol-2-yl)-2,4-dimethoxyphenyl]acryloyl}-N-isobutyrylbenzenesulfonamide sodium salt], the melting point is 249 to 251 °C (dec.).

In turn, `CCOC(=O)[N-]S(=O)(=O)c1ccc(C(=O)/C=C/c2cc(-c3cc4ccccc4[nH]3)c(OC)cc2OC)cc1.[K+]` [Example 40, N-Ethoxycarbonyl-4-{3E-[5-(1H-indol-2-yl)-2,4-dimethoxyphenyl]acryloyl}benzenesulfonamide potassium salt] showed a melting point of 220 to 222 °C.

With `CCOC(=O)NS(=O)(=O)c1ccc(C(=O)/C=C/c2cc(-c3cc4ccccc4[nH]3)c(OC)cc2OC)cc1` [Example 41, N-Ethoxycarbonyl-4-{3E-[5-(1H-indol-2-yl)-2,4-dimethoxyphenyl]acryloyl}benzenesulfonamide], the IC50 in the data set on VCAM-1 (setting [1]) was under 5 µM.

Regarding `CCC(=O)[N-]S(=O)(=O)c1ccc(C(=O)/C=C/c2cc(-c3cc4ccccc4[nH]3)c(OC)cc2OC)cc1.[Na+]` [Example 46, 4-{3E-[5-(1H-Indol-2-yl)-2,4-dimethoxyphenyl]acryloyl}-N-propionylbenzenesulfonamide sodium salt], the melting point was over 250 °C.

In the data set with VCAM-1 (setting [1]), `CCCC(=O)NS(=O)(=O)c1ccc(C(=O)/C=C/c2cc(-c3cc4ccccc4[nH]3)c(OC)cc2OC)cc1` [Example 47, N-Butyryl-4-{3E-[5-(1H-indol-2-yl)-2,4-dimethoxyphenyl]acryl}benzenesulfonamide] yielded an IC50 of under 5 µM.

As for `CCCC(=O)NS(=O)(=O)c1ccc(C(=O)/C=C/c2cc(N3CCCC3)c(OC)cc2OC)cc1` [Example 48, N-Butyryl-4-[3E-(2,4-dimethoxy-5-pyrrolidin-1-ylphenyl)acryloyl]benzenesulfonamide], the IC50 in the data set on VCAM-1 (setting [1]) is under 5 µM.

`CCCC(=O)[N-]S(=O)(=O)c1ccc(C(=O)/C=C/c2cc(-c3cc4ccccc4[nH]3)c(OC)cc2OC)cc1.[Na+]` [Example 49, N-Butyryl-4-{3E-[5-(1H-indol-2-yl)-2,4-dimethoxyphenyl]acryloyl}benzenesulfonamide sodium salt] came in with a melting point of 191 to 193 °C.

(Values after patent publication US7173129B2, “Sulfonamide-substituted chalcone derivatives and their use to treat diseases” (Athero Genics, Inc., priority 2003, dated 2007).)
